Entries after “also recorded” stand apart in the source; their conditions may differ. Non-standard residues stand in square brackets, D forms with d. Primed or numbered codes have the meaning given here. No end group written: not given here. *: point of attachment. FITC = O=C1OC2(c3ccc(O)cc3Oc3cc(O)ccc32)c2ccc(NC(=S)*)cc21; Aha′ = not defined here
Legend:
Type in all cases: biochemical
ppGalNAcTs = assay: Protease protection assay for ppGalNAcTs (general)
Method: (§1) There are multiple isoforms of the enzyme polypeptide N-acetylgalactosaminyltranferases (ppGalNAcTs). Activity of ppGalNAcTs are illustrated in FIG. 14. Using assay methods as described above, peptide substrates for ppGalNAcTs were prepared and used to assay to identify modulators of ppGalNAcTs activity. Peptide substrates EPGPTEAPK (SEQ ID NO:25) and EDAVTPGPK (SEQ ID NO:26) were prepared (see FIG. 15) and utilized to assay for modulators of the enzymes. Each peptide substrate include a proteinase K cleavage site. The identified compound SEQ ID NO:25 is a general substrate for ppGalNAcTs and identified compound SEQ ID NO:26 is a selective substrate for the enzyme ppGalNAcT1. Assays were run and alterations in the rate and/or amount of cleavage by proteinase K was determined. […] The difference in cleavage permitted use of the assay to identify compounds that inhibit glycosylation of the substrate by ppGalNAcTs. Additional inhibitory compounds identified using the assay include Compound 24 and Compound 27 (see Table 1).

ppGalNAcT1 = target: T1, ppGalNAcT1 (Homo sapiens, UniProt Q10472); assay: Protease protection assay for ppGalNAcT1
T1 sequence (Q10472 1-559): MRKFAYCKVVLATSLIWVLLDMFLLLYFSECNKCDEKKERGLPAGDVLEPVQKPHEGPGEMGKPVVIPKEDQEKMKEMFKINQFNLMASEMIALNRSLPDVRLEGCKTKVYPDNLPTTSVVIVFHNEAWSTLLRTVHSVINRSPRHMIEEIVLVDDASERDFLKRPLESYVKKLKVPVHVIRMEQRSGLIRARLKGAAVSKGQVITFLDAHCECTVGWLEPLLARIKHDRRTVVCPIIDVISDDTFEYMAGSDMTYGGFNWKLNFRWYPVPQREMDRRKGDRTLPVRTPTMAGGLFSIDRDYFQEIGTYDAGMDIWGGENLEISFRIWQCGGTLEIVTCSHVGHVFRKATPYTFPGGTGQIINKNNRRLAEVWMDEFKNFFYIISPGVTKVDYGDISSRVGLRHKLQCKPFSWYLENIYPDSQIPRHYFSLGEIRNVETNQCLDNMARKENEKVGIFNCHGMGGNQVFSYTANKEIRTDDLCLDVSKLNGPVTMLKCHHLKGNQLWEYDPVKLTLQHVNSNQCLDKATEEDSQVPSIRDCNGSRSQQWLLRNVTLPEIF
Method: as §1
(§2) It was determined that the assay could also be used to identify isoform selective inhibitors. […] The presence of the inhibitor disrupted crystal growth of the ppGalNAcT2.

ppGalNAcT2 = ppGalNAcT2 (Homo sapiens, UniProt Q10471); assay: Protease protection assay for ppGalNAcT2
Chain of ppGalNAcT2 (Q10471 whole entry): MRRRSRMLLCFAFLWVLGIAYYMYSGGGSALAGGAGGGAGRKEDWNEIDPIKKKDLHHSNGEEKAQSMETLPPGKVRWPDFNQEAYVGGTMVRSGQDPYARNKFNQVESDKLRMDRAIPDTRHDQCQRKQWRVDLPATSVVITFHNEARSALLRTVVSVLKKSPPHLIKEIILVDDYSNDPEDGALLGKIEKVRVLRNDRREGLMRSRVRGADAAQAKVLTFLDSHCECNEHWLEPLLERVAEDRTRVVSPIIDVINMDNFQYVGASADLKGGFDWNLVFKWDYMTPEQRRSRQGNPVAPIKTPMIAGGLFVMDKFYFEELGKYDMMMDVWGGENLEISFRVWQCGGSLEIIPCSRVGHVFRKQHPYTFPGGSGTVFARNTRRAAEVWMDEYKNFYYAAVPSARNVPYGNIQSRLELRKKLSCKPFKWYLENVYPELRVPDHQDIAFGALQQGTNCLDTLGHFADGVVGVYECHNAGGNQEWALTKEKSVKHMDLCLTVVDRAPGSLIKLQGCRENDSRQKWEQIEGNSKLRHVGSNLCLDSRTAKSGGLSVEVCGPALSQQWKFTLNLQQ
Method: as §1, §2

[1] = target: T2, O-Linked N-acetylglucosaminyltransferase (OGT) (Homo sapiens, UniProt O15294); assay: Glycosylation of CK2-derived polypeptide substrates by OGT, quantified by LC/MS
T2 sequence (O15294 1-1046): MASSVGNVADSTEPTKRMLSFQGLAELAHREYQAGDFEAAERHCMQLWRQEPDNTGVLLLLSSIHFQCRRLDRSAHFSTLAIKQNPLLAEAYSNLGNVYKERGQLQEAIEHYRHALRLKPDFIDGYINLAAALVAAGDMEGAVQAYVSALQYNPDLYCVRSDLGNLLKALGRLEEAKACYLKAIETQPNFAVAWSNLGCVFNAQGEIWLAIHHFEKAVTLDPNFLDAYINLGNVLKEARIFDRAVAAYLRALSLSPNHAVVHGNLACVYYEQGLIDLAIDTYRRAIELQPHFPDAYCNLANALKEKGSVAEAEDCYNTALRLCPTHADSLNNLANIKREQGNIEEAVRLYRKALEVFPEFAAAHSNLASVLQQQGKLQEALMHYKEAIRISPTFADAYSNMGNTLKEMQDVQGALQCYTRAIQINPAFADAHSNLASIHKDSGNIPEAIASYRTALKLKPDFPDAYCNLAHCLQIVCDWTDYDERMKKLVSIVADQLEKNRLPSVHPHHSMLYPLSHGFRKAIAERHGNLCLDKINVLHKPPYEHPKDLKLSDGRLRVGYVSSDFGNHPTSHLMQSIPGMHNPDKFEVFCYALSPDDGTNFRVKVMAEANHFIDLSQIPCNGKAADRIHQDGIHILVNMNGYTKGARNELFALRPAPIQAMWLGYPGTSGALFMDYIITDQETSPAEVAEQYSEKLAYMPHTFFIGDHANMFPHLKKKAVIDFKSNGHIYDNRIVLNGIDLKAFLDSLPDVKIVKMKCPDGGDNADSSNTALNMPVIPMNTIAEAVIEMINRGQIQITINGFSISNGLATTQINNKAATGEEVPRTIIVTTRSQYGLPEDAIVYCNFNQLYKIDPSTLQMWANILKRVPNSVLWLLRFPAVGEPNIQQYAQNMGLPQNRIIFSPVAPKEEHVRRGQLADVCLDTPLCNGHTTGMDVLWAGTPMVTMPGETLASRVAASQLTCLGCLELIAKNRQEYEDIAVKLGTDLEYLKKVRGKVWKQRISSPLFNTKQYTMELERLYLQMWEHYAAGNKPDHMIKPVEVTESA
Method: To address the first requirement, a panel of polypeptides was synthesized based on a truncated version of the CKII polypeptide [CKII peptide PGGSTPVSSNAMM (SEQ ID NO:20)]. The polypeptide was modified from the native sequence in several ways. First, a fluorescein was installed on the N-terminus during synthesis. Second, a lysine was added to the C-terminus so that a second dye or quencher could be installed by reaction with the appropriate N-hydroxysuccinimidyl ester. These modifications allowed two different FRET approaches. The first approach required the installation of a coumarin derivative on the polypeptide. The second required installation of a quencher molecule, which measured total fluorescence intensity. (See Examples 2 and 3). Finally, the residues on either side of the glycosylated serine of the truncated CK2 polypeptide were changed to phenylalanine, leucine or arginine to introduce proteolytic cleavage sites for common proteases (such as trypsin, chymotrypsin and thermolysin) that were not present in the native sequence. It was reasoned that cleavage adjacent to the glycosylation site would yield the largest difference in the rate of proteolysis between glycosylated and native polypeptides. This series of polypeptides was synthesized and screened for OGT activity using by LC/MS. Peak integration (measured at 445 nm) was used to quantitative products and reactants and mass spectrometry was used to confirm peak identity. The results are presented in Table 2 and some of the peptides (peptide 4.1, 4.4, and 4.5 top to bottom) are illustrated in FIG. 2.
All polypeptides were purchased from Tufts University core facility (Boston, Mass.). The mass of crude product was verified and the polypeptides were labeled under the following conditions: Polypeptide was dissolved in 250 mM NaHCO3 buffer, pH 8.2 at a 5 mM concentration and the appropriate NHS-Ester (0.5 eq) was dissolved in DMSO (a volume of 1/10 of the aqueous buffer was used). The DMSO solution was quickly added to the peptide and the reaction proceeded at room temperature for 30 minutes. This was repeated 2 more times (four more times for polypeptide 4.10). The reaction was monitored by LC/MS. LCMS conditions for polypeptides 4.1-4.8—Agilent Eclipse 5 μm XD8-C8 column, 0→100% CH3CN+0.1% formic acid over 20 minutes. LCMS conditions for polypeptides 4.9-4.10—Agilent Eclipse 5 μm XD8-C8 column, 0→100% CH3CN+0.1% NH4OH over 20 minutes. Each polypeptide was purified by preparative HPLC. Conditions for polypeptides 4.1-4.8 were: —Phenomonex Luna C18 5 μm column, 0→100% CH3CN+0.1% TFA over 40 minutes. Conditions for polypeptides 4.9-4.10 were: —Phenomonex Luna C18 5 μm column, 0→100% CH3CN+0.1% NH4OH over 40 minutes. Products were confirmed by LC/MS. Preparative Glycosylation of Labeled Polypeptides: Purified FRET labeled polypeptides were added (20-50 μM final concentration) to assay buffer (50 mM Tris, 20 mM CaCl2, 0.05% Tween-20, 0.05% NP-40, pH=7.8), 200 μM UDP-GlcNAc, 0.05 units of alkaline phosphatase, and 5 μM OGT. Reactions were monitored using LCMS: conditions for polypeptides 4.1-4.8—Agilent Eclipse 5 μm XD8-C8 column, 10→60% CH3CN+0.1% formic acid over 20 minutes. LCMS conditions for polypeptides 4.9-4.10—Agilent Eclipse 5 μm XD8-C8 column, 10→60% CH3CN+0.1% NH4OH over 20 minutes, and when complete were purified using the same column and conditions. Polypeptides 4.1-4.8 were quantitated by absorption at 492 nm using an extinction coefficient of 86,000 cm^−1M^−1; polypeptide 4.9 was quantitated by absorption at 530 nm using an extinction coefficient of 26,000 cm^−1M^−1; polypeptide 4.10 was quantitated by absorption at 530 nm using an extinction coefficient of 52,000 cm^−1M^−1. Fluorescence Resonance Energy Transfer (FRET)-Peptide Approach #1

In the case of `O=C(O)CCCN1C(=O)C(O)=C(C(=O)/C=C\c2ccccc2)C1c1ccccc1` (centres unmarked) [Compound 24], the “inhibition of ppGalNAcTs” value (ppGalNAcTs) is reported as “inhibitory; also recorded: inhibitors”, the “inhibition of ppGalNAcT1 (% glycosylation, FIG. 18)” value (ppGalNAcT1) is reported as “inhibits” and the “inhibition of ppGalNAcT2 (% glycosylation, FIG. 18)” value (ppGalNAcT2) is reported as “inhibits”.

For `O=C1NC(=O)N(Cc2ccco2)C(=O)/C1=C\c1ccco1` [Compound 25], the “isoform selectivity ppGalNAcT2 vs ppGalNAcT1” value (ppGalNAcT2; FIG. 18B) was “more selective inhibitor for ppGalNAcT2 than for ppGalNAcT1; also recorded: more selectively inhibits ppGalNAcT2 than ppGalNAcT1”.

`O=C1NC(=S)NC(=O)C1=C/C=C\c1ccco1` [Compound 26] was tested, and the “inhibition of ppGalNAcTs” value (ppGalNAcTs) was “inhibitors”.

In the case of `O=C(O)CCCCCn1c(SCC(=O)c2ccc(O)c(O)c2)nc2ccsc2c1=O` [Compound 27], the “inhibition of ppGalNAcTs” value (ppGalNAcTs) is reported as “inhibitory; also recorded: inhibitors”.

“FITC(Aha)STPVSSANMK ({FITC}-[Aha′]STPVSSANMK; reading uncertain; also: printed as FITC(Aha)STPVSSANMK) [Polypeptide 4.1]” was tested, and the relative glycosylation rate ([1]; FIG. 2, natural (wild-type) sequence set as reference) was 100% and the “Relative rate of glycosylation” value ([1]; OGT, LC/MS peak integration at 445 nm, relative to wt polypeptide 4.1) was 1.
